Laboratory results reported in the supplement of paper PMC9663587.

Key:
Test in all cases: GRmax, 72 h; higher = less effect;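 further: breast cell lines in 384-well plates, nine doses across a 10^4 range, Dye Drop imaging of viable cells vs DMSO and time-zero plates, GR 0 means no net growth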
184A1 = tested on: 184A1
BT20 = tested on: BT20
CAL120 = tested on: CAL120
EVSAT = tested on: EVSAT
HCC1806 = tested on: HCC1806
HCC70 = tested on: HCC70
MCF7 = tested on: MCF7
MDAMB468 = tested on: MDAMB468
SUM159 = tested on: SUM159
SUM229PE = tested on: SUM229PE
SUM44PE = tested on: SUM44PE
UACC812 = tested on: UACC812
ZR751 = tested on: ZR751

Structure (SMILES)	GRmax, 72 h (184A1)	GRmax, 72 h (BT20)	GRmax, 72 h (CAL120)	GRmax, 72 h (EVSAT)	GRmax, 72 h (HCC1806)	GRmax, 72 h (HCC70)	GRmax, 72 h (MCF7)	GRmax, 72 h (MDAMB468)	GRmax, 72 h (SUM159)	GRmax, 72 h (SUM229PE)	GRmax, 72 h (SUM44PE)	GRmax, 72 h (UACC812)	GRmax, 72 h (ZR751)
COc1cccc(OCCCN)c1-c1cc(Nc2cnc(C#N)cn2)n[nH]1	0.529 GR	-0.2 GR	0.317 GR	0.713 GR	-0.476 GR	-0.639 GR	0.211 GR	0.6 GR	-0.0281 GR	-0.112 GR	-0.79 GR	0.528 GR	0.384 GR
Cc1nc(NC(=O)N2CCC[C@H]2C(N)=O)sc1-c1ccnc(C(C)(C)C(F)(F)F)c1 [Alpelisib/BYL719] (max 10 µM)	0.431 GR	-0.118 GR	0.608 GR	0.716 GR	0.726 GR	0.0981 GR	0.0207 GR	0.714 GR	0.602 GR	0.523 GR	-0.341 GR	-0.0521 GR	0.577 GR
CC(=O)c1c(C)c2cnc(Nc3ccc(N4CCN(CCOCCOCCOCCNC(=O)COc5cccc6c5C(=O)N(C5CCC(=O)NC5=O)C6=O)CC4)cn3)nc2n(C2CCCC2)c1=O (stereo not drawn) [BSJ-03-123] (max 10 µM)	-0.137 GR	-0.005 GR	0.239 GR	0.0652 GR	-0.0588 GR	-0.513 GR	-0.323 GR	-0.0298 GR	-0.042 GR	0.132 GR	0.289 GR	-0.312 GR	0.245 GR
CC(=O)c1c(C)c2cnc(Nc3ccc(N4CCNCC4)cn3)nc2n(C2CCCC2)c1=O (max 3.162 µM)	0.128 GR	0.162 GR	0.669 GR	0.646 GR	0.692 GR	0.936 GR	0.254 GR	1.05 GR	0.45 GR	0.4 GR	0.437 GR	-0.142 GR	0.482 GR
CS(=O)(=O)N1CCN(Cc2cc3nc(-c4cccc5[nH]ncc45)nc(N4CCOCC4)c3s2)CC1 [Pictilisib/GDC0941] (max 10 µM)	0.0537 GR	-0.165 GR	0.194 GR	-0.565 GR	0.194 GR	-0.597 GR	-0.159 GR	-0.0613 GR	0.2 GR	0.0426 GR	-0.205 GR	-0.601 GR	-0.0806 GR
Cc1cc(Nc2ncc(Cl)c(Nc3ccccc3S(=O)(=O)C(C)C)n2)c(OC(C)C)cc1C1CCNCC1 [Ceritinib/LDK378] (max 10 µM)	-0.728 GR	-0.737 GR	-0.432 GR	0.646 GR	-0.406 GR	-0.881 GR	-0.616 GR	-0.742 GR	-0.487 GR	0.336 GR	-0.32 GR	-0.983 GR	-0.159 GR
CC(=O)Nc1cccc(-n2c(=O)n(C3CC3)c(=O)c3c(Nc4ccc(I)cc4F)n(C)c(=O)c(C)c32)c1 (max 1 µM)	0.187 GR	0.503 GR	0.415 GR	0.939 GR	0.704 GR	-0.0393 GR	0.558 GR	0.407 GR	0.404 GR	0.172 GR	0.56 GR	-0.119 GR	0.266 GR
CC[C@@]1(O)C(=O)OCc2c1cc1n(c2=O)Cc2cc3c(CN(C)C)c(O)ccc3nc2-1 [Topotecan] (max 10 µM)	–	-0.641 GR	-0.336 GR	–	-0.546 GR	-0.861 GR	-0.271 GR	-0.658 GR	-0.454 GR	–	–	–	–
